67 compounds from patent publication EP0450097B1, “BENZOHETEROCYCLIC COMPOUNDS” (OTSUKA PHARMACEUTICAL CO., LTD., priority 1989, dated 1991) can be followed below.

SMILES strings stand for the structures.

The target of the test is T1, V₂ receptor (Rattus norvegicus, UniProt Q00788).
T1 construct: Using rat kidney plasma membrane preparations; from tissue; host or cells: rat kidney plasma membranes
T1 sequence (Q00788 whole entry): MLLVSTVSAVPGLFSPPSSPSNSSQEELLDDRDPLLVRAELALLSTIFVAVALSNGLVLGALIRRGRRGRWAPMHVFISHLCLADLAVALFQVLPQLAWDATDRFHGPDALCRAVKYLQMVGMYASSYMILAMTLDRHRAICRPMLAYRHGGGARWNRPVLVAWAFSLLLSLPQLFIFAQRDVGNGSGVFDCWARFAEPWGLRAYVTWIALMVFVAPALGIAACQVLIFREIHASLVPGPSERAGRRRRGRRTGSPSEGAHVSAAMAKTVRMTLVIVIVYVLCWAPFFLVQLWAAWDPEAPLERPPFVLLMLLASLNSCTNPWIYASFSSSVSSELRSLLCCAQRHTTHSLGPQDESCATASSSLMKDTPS
The experiment in a line: V₂ receptor binding assay ([³H]-Arg-vasopressin, rat kidney plasma membrane preparations). Conditions: 4°C for 3 hours. As for the experimental part: Using rat kidney plasma membrane preparations prepared according to O. Hechter's method [cf: J. Bio. […] After incubation, the mixture is filtered using the glass filter (GF/F) so as to separate the membrane preparation combined with vasopressin and then washed twice with the buffer (5 ml). This glass filter is taken out and mixed with liquid scintillation cocktail. The amount of [³H]-vasopressin combined with the membrane is measured by liquid scintillation counter and the rate of the inhibitory effect of the test compound is estimated according to the following equation. Rate of the inhibitory effect (%) = 100 -(C1 - B1)/(C0 - B1)X 100 [formula] C¹: The amount of [³H]-vasopressin combined with the membrane in the presence of the test compound (in prescribed amount). C⁰: The amount of [³H)-vasopressin combined with the membrane in the absence of the test compound. B¹: The amount of [³H]-vasopressin combined with the membrane in the presence of the excess amount of vasopressin (10⁻⁶ M).
The results are expressed as IC₅₀ values, which is the concentration of the test compound required to achieve the inhibitory effect in the rate of 50 %.
Turning to `N#Cc1cccc(C(=O)Nc2ccc(C(=O)N3CCCCc4ccccc43)cc2)c1` [compound 31], the IC50 (usually the concentration needed to halve the response being measured) came to 98 nM. To `COC1(OC)CCN(C(=O)c2ccc(NC(=O)c3ccccc3C)cc2)c2ccccc2C1` [compound 233] belongs 150 nM; to `CCCNC1CCCN(C(=O)c2ccc(NC(=O)c3ccc(Cl)cc3Cl)cc2)c2ccccc21` (stereo not shown) [compound 169], 71 nM. On to `CC(=O)NC1Cc2ccccc2N(C(=O)c2ccc(NC(=O)c3cc(Cl)cc(Cl)c3)cc2)C1` (stereo not shown) [compound 99], for which the IC50 came to 1600 nM. Turning to `CCN(CC)CCOc1cc(C(=O)N2CCCC(N(C)C)c3ccccc32)ccc1NC(=O)c1ccccc1C` (stereo not shown) [compound 294], the IC50 was 330 nM. To `Cc1cccc(OCC(=O)Nc2ccc(C(=O)N3CCCCc4ccccc43)cc2)c1` [compound 107] belongs 32 nM; to `COc1ccc2c(c1)CCCN2C(=O)c1ccc(NC(=O)c2cc(Cl)cc(Cl)c2)cc1` [compound 95], 89 nM; to `Cc1ccccc1C(=O)Nc1ccc(C(=O)N2CCN(C)c3ccccc32)cc1` [compound 51], 400 nM. To `Nc1cccc(C(=O)Nc2ccc(C(=O)N3CCCc4ccccc43)cc2)c1` [compound 5] belongs 1200 nM; to `O=C(Nc1ccc(C(=O)N2CCCc3ccccc32)cc1)c1cccc(Cl)c1` [compound 2], 200 nM; to `Cc1ccccc1C(=O)Nc1ccc(C(=O)N2CCCC(O)(CO)c3ccccc32)c(Cl)c1` (stereo not shown) [compound 225], 30 nM. The compound `CNC1CCCN(C(=O)c2ccc(NC(=O)c3cc(Cl)cc(Cl)c3)cc2)c2ccccc21` (stereo not shown) [compound 141] yielded an IC50 of 10 nM. `COc1cc(C(=O)N2CCCC(N(C)C)c3ccccc32)ccc1NC(=O)c1ccc(Cl)cc1Cl` (stereo not shown) [compound 248] displayed an IC50 of 60 nM. To `CCOC(=O)NC1CCCN(C(=O)c2ccc(NC(=O)c3ccccc3C)cc2)c2ccccc21` (stereo not shown) [compound 260] belongs 130 nM; to `O=C(Nc1ccc(C(=O)N2CCCc3ccccc32)cc1)c1ccccc1[N+](=O)[O-]` [compound 9], 530 nM; to `O=C(Nc1ccc(C(=O)N2CCCC(NC3CC3)c3ccccc32)c(Cl)c1)c1ccccc1Cl` (stereo not shown) [compound 200], 24 nM. In turn, `COc1cc(NC(=O)c2ccccc2Cl)ccc1C(=O)N1CCCC(N(C)C)c2ccccc21` (stereo not shown) [compound 177] showed an IC50 of 150 nM. This IC50 is about 6.2-fold higher than that of the compound before.

`CN(C)C1CCCN(C(=O)c2ccc(NC(=O)c3cc(F)cc(F)c3)cc2)c2ccccc21` (stereo not shown) [compound 230] yielded an IC50 of 20 nM. In the case of `Cc1ccccc1C(=O)Nc1ccc(C(=O)N2CC=Cc3ccccc32)cc1` [compound 217], the IC50 amounted to 370 nM. To `Cc1ccccc1C(=O)Nc1ccc(C(=O)N2CCC[S+]([O-])c3ccccc32)cc1` (stereo not shown) [compound 171] belongs 870 nM. `CN1CCN(C(=O)c2ccc(NC(=O)c3cc(Cl)cc(Cl)c3)cc2)c2ccccc21` [compound 53] came in with an IC50 of 1600 nM. Take `COc1cccc(OCC(=O)Nc2ccc(C(=O)N3CCCCc4ccccc43)cc2)c1` [compound 111]: the IC50 is 87 nM. The compound `Cc1cccc(C(=O)Nc2ccc(C(=O)N3CCOCc4ccccc43)cc2)c1` [compound 41] showed an IC50 of 200 nM. `O=C(Nc1ccc(C(=O)N2CCCc3ccccc32)cc1)C1CCCCCCC1` [compound 16] returned an IC50 of 170 nM. For the compound `CN(C)C1CCCN(C(=O)c2ccc(NC(=O)COc3ccccc3)cc2)c2ccccc21` (stereo not shown) [compound 319], the IC50 was found to be 58 nM.

Turning to `CNCC(=O)NC1CCCN(C(=O)c2ccc(NC(=O)c3ccccc3C)cc2)c2ccccc21` (stereo not shown) [compound 291], the IC50 turned out to be 130 nM.

The compound `Cc1cccc(C(=O)Nc2ccc(C(=O)N3CCCCCc4ccccc43)cc2)c1C` [compound 38] had an IC50 of 29 nM.

`Cc1ccccc1N(C)CC(=O)Nc1ccc(C(=O)N2CCCC(N(C)C)c3ccccc32)cc1` (stereo not shown) [compound 317] came in with an IC50 of 72 nM. To `O=C(Nc1ccc(C(=O)N2CCCc3ccccc32)cc1)c1cccc2ccccc12` [compound 18] belongs 1000 nM.

Regarding `N#Cc1cccc(C(=O)Nc2ccc(C(=O)N3CCCc4ccccc43)cc2)c1` [compound 4], the IC50 stood at 580 nM. To `CNC1CCCN(C(=O)c2ccc(NC(=O)c3ccccc3Cl)cc2Cl)c2ccccc21` (stereo not shown) [compound 176] belongs 4 nM; to `CC1Cc2ccccc2N(C(=O)c2ccc(NC(=O)c3cc(Cl)cc(Cl)c3)cc2)C1` (stereo not shown) [compound 49], 63 nM.

Compound `CC1Cc2ccccc2N(C(=O)c2ccc(NC(=O)c3ccccc3)cc2)C1` (stereo not shown) [compound 45] returned an IC50 of 190 nM. Compared with the last compound, the IC50 is about 3-fold higher. To `O=C(Cc1ccccc1)Nc1ccc(C(=O)N2CCCc3ccccc32)cc1` [compound 13] belongs 1020 nM.

`O=C(Nc1ccc(C(=O)N2CCOCc3ccccc32)cc1)c1cc(Cl)cc(Cl)c1` [compound 43]: the IC50 stood at 170 nM. This IC50 is about 6-fold lower than that of the compound before. To `C=CCN(C)C1CCCN(C(=O)c2ccc(NC(=O)c3ccccc3C)cc2Cl)c2ccccc21` (stereo not shown) [compound 190] belongs 82 nM; to `COc1cccc(C(=O)Nc2ccc(C(=O)N3CCCc4ccccc43)cc2)c1` [compound 3], 400 nM; to `Cc1ccccc1C(=O)Nc1ccc(C(=O)N2CCC(C)C(N(C)C)c3ccccc32)cc1` (stereo not shown) [compound 254], 16 nM.

`CN(C)C1CCCN(C(=O)c2ccc(NC(=O)c3ccccc3F)cc2)c2ccccc21` (stereo not shown) [compound 212] had an IC50 of 35 nM. This IC50 lies about 2.2-fold higher than the previous one.

With `CN1CC(=O)OC2CCN(C(=O)c3ccc(NC(=O)c4ccccc4Cl)cc3)c3ccccc3C21` (stereo not shown) [compound 251], the IC50 is 94 nM. Take `O=C(Nc1cccc(Cl)c1)c1ccc(C(=O)N2CCCc3ccccc32)cc1` [compound 23]: the IC50 is 1070 nM. On to `O=C(CC1CCCCC1)Nc1ccc(C(=O)N2CCCc3ccccc32)cc1` [compound 12], for which the IC50 turned out to be 1970 nM. As for `CNC1CCCN(C(=O)c2ccc(NC(=O)c3ccccc3Cl)cc2)c2ccccc21` (stereo not shown) [compound 181], the IC50 came to 38 nM. To `Cc1ccccc1C(=O)Nc1ccc(C(=O)N2CCCC(N(C)C(=O)Cn3ccnc3)c3ccccc32)cc1` (stereo not shown) [compound 297] belongs 51 nM. `CN(C)C1CCN(C(=O)c2ccc(NC(=O)c3cc(Cl)cc(Cl)c3)cc2)c2ccccc21` (stereo not shown) [compound 100]: the IC50 stood at 11 nM. To `CN(C)C1CCCN(C(=O)c2ccc(NC(=O)c3ccc(F)cc3F)cc2)c2ccccc21` (stereo not shown) [compound 213] belongs 33 nM. `CCCN1CCN(C(=O)c2ccc(NC(=O)c3cccc(C)c3C)cc2)c2ccccc2C1` [compound 86]: the IC50 worked out at 580 nM.

In turn, `Cc1ccccc1C(=O)Nc1ccc(C(=O)N2CCCC(N(C)C)c3ccccc32)cc1OCc1ccccc1` (stereo not shown) [compound 170] yielded an IC50 of 250 nM. Compared with the last compound, the IC50 is about 2.3-fold lower.

The compound `CC1Cc2ccccc2N(C(=O)c2ccc(NC(=O)C3CCCCC3)cc2)C1` (stereo not shown) [compound 44] returned an IC50 of 50 nM. Compound `NC1CCCN(C(=O)c2ccc(NC(=O)c3ccccc3Cl)cc2)c2ccccc21` (stereo not shown) [compound 253] yielded an IC50 of 52 nM.

Compound `Cc1ccccc1NC(=O)c1ccc(C(=O)N2CCCc3ccccc32)cc1` [compound 22] displayed an IC50 of 330 nM. Consider `CC1CCc2ccccc2N1C(=O)c1ccc(NC(=O)c2cc(Cl)cc(Cl)c2)cc1` (stereo not shown) [compound 54], for which the IC50 was found to be 110 nM. Take `CC(=O)N1CCN(C2CCCN(C(=O)c3ccc(NC(=O)c4ccccc4Cl)cc3)c3ccccc32)CC1` (stereo not shown) [compound 205]: the IC50 was 74 nM. This IC50 and that of the compound before are within 1.5-fold of each other. As for `CC(C)(COc1ccccc1)NCC(=O)Nc1ccc(C(=O)N2CCCCc3ccccc32)cc1` [compound 106], the IC50 turned out to be 440 nM. To `O=C(COc1ccccc1)Nc1ccc(C(=O)N2CCCCc3ccccc32)cc1` [compound 104] belongs 370 nM; to `CN1CCN(C(=O)c2ccc(NC(=O)c3cc(Cl)cc(Cl)c3)cc2Cl)c2ccccc2C1` [compound 140], 24 nM. To `CNC1CCN(C(=O)c2ccc(NC(=O)c3cc(Cl)cc(Cl)c3)cc2)c2ccccc21` (stereo not shown) [compound 97] belongs 24 nM; to `O=C(Nc1ccc(C(=O)N2CCCC(NCCc3ccccn3)c3ccccc32)cc1)c1ccccc1Cl` (stereo not shown) [compound 257], 45 nM; to `Cc1cc(NC(=O)c2ccccc2Cl)ccc1C(=O)N1CCCC(N(C)C)c2ccccc21` (stereo not shown) [compound 219], 23 nM. To `Cc1ccccc1C(=O)Nc1ccc(C(=O)N2CCCC(NC(=O)CN)c3ccccc32)cc1` (stereo not shown) [compound 299] belongs 220 nM; to `CN1CCN(C(=O)c2ccc(NC(=O)C3CCCCC3)cc2)c2ccccc21` [compound 50], 1300 nM. Take `Cc1cccc(C(=O)Nc2ccc(C(=O)N3CCCN(C)c4ccccc43)cc2)c1C` [compound 91]: the IC50 came out at 5 nM. To `Cc1ccccc1C(=O)Nc1ccc(C(=O)N2CCCC(N(C)CCCOC3CCCCO3)c3ccccc32)cc1` (stereo not shown) [compound 267] belongs 120 nM; to `Cc1ccc2c(c1)CCCN2C(=O)c1ccc(NC(=O)c2cc(Cl)cc(Cl)c2)cc1` [compound 94], 95 nM; to `O=C(Nc1ccc(C(=O)N2CCCc3ccccc32)cc1)c1ccccc1` [Test compound 1, 1-(4-Benzoylaminobenzoyl)-1,2,3,4-tetrahydroquinoline], 980 nM. As for `CN(C)C1c2ccccc2N(C(=O)c2ccc(NC(=O)c3ccccc3Cl)cc2)CCC1O` (stereo not shown) [compound 216], the IC50 is 910 nM. In turn, `CCOC(=O)CN(C)C1CCCN(C(=O)c2ccc(NC(=O)c3ccccc3C)cc2)c2ccccc21` (stereo not shown) [compound 262] returned an IC50 of 29 nM.
